The values below come from publication PMC12523804, “Evaluation of molecular mechanisms of (Z)-3-(pentadec-10′-enyl)-catechol (litreol) and synthetic derivatives as inhibitors of human leukotriene biosynthesis” (Redox Biology, 2025).

The structures appear in SMILES notation.

In data set [1] the target is T1, 5-LO (Homo sapiens, UniProt P09917).
T1 sequence (P09917 1-674): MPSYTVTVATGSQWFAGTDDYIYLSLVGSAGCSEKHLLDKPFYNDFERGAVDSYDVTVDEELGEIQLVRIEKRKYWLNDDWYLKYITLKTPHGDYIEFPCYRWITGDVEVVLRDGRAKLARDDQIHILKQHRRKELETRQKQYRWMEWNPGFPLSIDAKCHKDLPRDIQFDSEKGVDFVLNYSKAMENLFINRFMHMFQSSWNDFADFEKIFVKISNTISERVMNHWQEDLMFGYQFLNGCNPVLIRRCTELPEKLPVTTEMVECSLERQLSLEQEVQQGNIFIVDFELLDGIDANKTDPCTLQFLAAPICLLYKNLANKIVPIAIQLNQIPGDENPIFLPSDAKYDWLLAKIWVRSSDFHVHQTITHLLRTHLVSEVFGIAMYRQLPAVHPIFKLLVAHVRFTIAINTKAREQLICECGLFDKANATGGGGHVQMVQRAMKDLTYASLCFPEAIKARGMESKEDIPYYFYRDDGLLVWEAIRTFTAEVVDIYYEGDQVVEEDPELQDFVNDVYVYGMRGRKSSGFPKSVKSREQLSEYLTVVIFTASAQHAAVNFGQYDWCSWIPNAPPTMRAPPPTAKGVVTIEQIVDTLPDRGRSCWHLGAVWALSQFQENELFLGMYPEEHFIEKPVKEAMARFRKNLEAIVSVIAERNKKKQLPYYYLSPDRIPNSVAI
Kind of data set: 5-LO product formation in intact human PMNL (neutrophils). Further details: endogenous in cells; host or cells: human PMNL from peripheral blood of healthy volunteers. The format is cell-based. To be noted: for IC50: intact human PMNL. As for the experimental part: PMNL and monocytes were isolated from human peripheral blood of adult healthy volunteers, with consent, obtained from the Institute of Transfusion Medi-cine, University Hospital Jena (Germany). PMNL were immediately isolated by dextran sedi-mentation, centrifugation on Nycoprep cushions, and hypotonic lysis of erythrocytes, as described. PMNL viability was analyzed by trypan blue exclusion with a Vi-cell counter (Beckmann Coulter GmbH, Krefeld). HEK-293 cells were grown in DMEM/High Glucose (4.5 g/L) medium supplemented with heat-inactivated fetal calf serum (FCS, 10 %, vv_1), 100 U/mLpenicillin, and 100 µg/mL streptomycin at 37 °C in a 5 % CO2 incubator. HEK-293 cells were stably transfected with 5-LO and FLAP as validated experimental cell-based model for studying the regulation of 5-LO [28]. None of the cell lines used in this study were authenticated.
Freshly isolated human PMNL (5 × 10^6) were resuspended in 1 mL PBS buffer containing 1 mg/mL glucose (PG buffer). […] After 10 min at 37 °C, the reaction was stopped with 1 mL of methanol for 10 min on ice and LO products formed and released in the supernatants were extracted and analyzed by HPLC. In detail, after centrifugation (800g, 10 min, room temperature) the samples were applied to C-18 solid-phase extraction columns (100 mg; IST, Mid Glamorgan, United Kingdom), preconditioned with 1 mL methanol and 1 mL water. The columns were washed with 1 mL water and 1 mL water/methanol (75/25, vol/vol) and 5-LO metabolites were eluted with 300 μL methanol. The extract was then diluted with 120 μL water, and 100 μL diluted extract were analyzed by HPLC using a C-18 Radial-Pak column (Waters) eluted with methanol/water/acetic acid 75/25/0.1 (vol/vol/vol) at a flow rate of 1.2 mL/min. Amounts of different metabolites were determined by peak area integration. 5-LO products analyzed include LTB4 and its two all-trans isomers, 5(S)-hydroxy-6-trans-8,11,14-cis-eicosatetraenoic acid (5-HETE), and 5(S)-hydroper-oxy-6-trans-8,11,14-cis-eicosatetraenoic acid (5-HpETE). 5-HETE and 5-HpETE coelute as one major peak, and the integration of this peak represented both eicosanoids.

Data set [2] deals with T1, 5-LO. Briefly: cell-free 5-LO activity assay with purified human recombinant 5-LO. Format: biochemical. Further details: made in house. Conditions: for mechanism of 5-LO inhibition versus substrate AA: AA 2.5, 5, 10, 20, 40 and 80 μM; for mechanism of 5-LO inhibition versus substrate AA / AA concentration at which maximal inhibitory potency was reached: isolated 5-LO; for AA concentration at which maximal inhibitory potency was reached: varying AA. As for the experimental part:
5-LO was expressed in E. coli B121 (DE3) transformed with pT3- 5LO plasmid, and purification of 5-LO was performed as described previously. Briefly, E. coli was lysed in 50 mM tri-ethanolamine/HCl, pH 8.0, 5 mM EDTA, […] soybean trypsin inhibitor, 1 mM phenylmethanesulfonyl fluoride, 1 mM dithiothreitol and 1 mg/mL lysozyme and then sonified (3 × 15 s). The homogenate was then centrifuged at 40,000g for 20 min at 4°C. 5-LO in the supernatant was partially purified by affinity chromatography on an ATP-agarose column (Sigma-Aldrich). Semi-purified 5-LO was diluted in PBS containing EDTA (1 mM) and ATP (1 mM) and immediately used for 5-LO activity assays. Samples were pre-incubated with the test compounds or vehicle (0.1 % DMSO) for 10 min at 4°C. Samples were pre-warmed for 30 s at 37°C, and 2 mM CaCl2 plus the indicated concentrations of AA were added to start 5-LO product formation. The reaction was stopped after 10 min by addition of one volume of ice-cold methanol, and the formed metabolites were analyzed by HPLC. 5- LO products include the all-trans isomers of LTB4 as well as 5-HPETE and its corresponding alcohol 5-HETE.

For data set [3], the system named is human PMNLs. Briefly: Lactate dehydrogenase release (LDH assay) in PMNL. The format is cell-based. The method, then:
After treatment of PMNL, supernatants were centrifuged (600g × 5 min, 4 °C), and 100 μL of supernatant were mixed with 200 μL LDH reaction buffer (75 mM Tris/HCl, pH 7.4, 0.3 mM NADH, 1.5 mM Na-pyruvate) in a 96-well plate. The decrease of NADH was measured immediately by absorbance at 340 nm in a kinetic mode (every 7 s for 20 min; Multiskan Spectrum). As a positive control for maximal LDH release, cells treated with 1 % Triton X-100 were included in each experiment, while untreated cells and vehicle (DMSO) served as negative controls.

Data set [4] deals with ROS formation in PMNL. Briefly: ROS formation in neutrophils (DCF-DA). Format: cell-based, human. To be noted: 1 and 10 μM, 0.1 μM PMA. As for the experimental part:
Neutrophils (10^7 cells/mL in PG buffer) were pre-incubated for 15 min at 37 °C with litreol compounds, diphenyleneiodonium chloride (DPI, used as a positive control for ROS inhibition), or 0.1 % DMSO as vehicle control. Then, 2′,7′-dichlorofluorescence-diacetate (DCF-DA; 1 μg/mL) and CaCl2 (1 mM) were added 2 min prior to addition of 0.1 μM phorbol myristate acetate (PMA, AppliChem, Darmstadt, Germany). The fluorescence emission at 530 nm was measured after excitation at 485 nm in a thermally controlled (37 °C) NOVOstar microplate reader (BMG Labtechnologies GmbH, Offenburg, Germany).

The mark [5] stands for this setting: Cell-based A23187 (IC50 of 5-LO product formation), […] A23187, 10 min.
Setting [6] is: Cell-based A23187 + AA (IC50 of 5-LO product formation), […] A23187 plus 20 μM AA, 10 min.

With `CCCCCCCCCCCCCCCc1cccc(O)c1O` [CS, 3-n-pentadecylcatechol], the IC50 in data set [1] (setting [5]) was 800 ± 500 nM. In addition, the IC50 in data set [1] (setting [6]) came to 70 nM. In data set [2], the IC50 was 150 nM, the “mechanism of 5-LO inhibition versus substrate AA” value is “not competitive” and the “AA concentration at which maximal inhibitory potency was reached” value came to 2500 nM. The “cytotoxicity on PMNL (LDH levels in the supernatants)” value in data set [3] is given as “comparable to those of untreated controls”. Moreover, in data set [4], the “ROS formation in PMA-stimulated PMNL” value is recorded as “not affected”.
Regarding `CCCC/C=C\CCCCCCCCCc1cccc(O)c1O` [CI, (Z)-3-(pentadec-10′-enyl)-catechol], the IC50 is 260 nM in data set [1] (setting [5]), 90 nM in data set [1] (setting [6]) and 60 ± 40 nM in data set [2]. For the same compound, the “fold greater potency compared to hydrogenated analogue CS” value in data set [1] (comparison of IC50 values (neutrophils and cell-free)) is on record as 2.5- to 3 fold. In data set [2], the “mechanism of 5-LO inhibition versus substrate AA” value was “excluding a substrate competitive mechanism”. For the same compound, the “AA concentration at which maximal inhibitory potency was reached” value in data set [2] came to 20000 nM. Further, the “cytotoxicity on PMNL (LDH levels in the supernatants)” value in data set [3] was “comparable to those of untreated controls”. Further, the “ROS formation in PMA-stimulated PMNL” value in data set [4] is recorded as “not affected”.

In general, IC50 refers to the point on the concentration scale where inhibition reaches its midpoint.
